# Assay results as given in patent US20240116946A1 (Gilead Sciences, Inc., priority 2022, published 2024).
# Like-named read-outs stand apart in the source and are kept apart here.
# Assays:
# [1] = biological target: recombinant SARS-CoV-2 Main protease (Mpro) (Severe acute respiratory syndrome coronavirus 2 (2019-nCoV) (SARS-CoV-2), UniProt P0DTD1); assay: Cov Mpro Biochemical IC50 Assay; conditions: fluorogenic peptide substrate 40 μM
# SARS-CoV-2-NLuc = assay: microbe, parasite or virus in culture; format: cell-based, SARS Coronavirus 2; conditions: read-out: MPro EC50
# [2] = recombinant SARS-CoV-2 Mpro 7.5 nM, read-out: MPro IC50
# [3] = MPro IC50, recombinant SARS-CoV-2 Mpro 7.5 nM
SMILES,"IC50 [1, 2]",EC50 (SARS-CoV-2-NLuc),"IC50 [1, 3]"
"Cc1c2c(-n3c(=O)c4sc(-c5ccc(F)cc5Cl)cc4n(CCC#N)c3=O)cncc2nn1C (single isomer, unassigned) [Example 972, 3-(6-(2-chloro-4-fluorophenyl)-3-(2,3-dimethyl-2H-pyrazolo[3,4-c]pyridin-4-yl)-2,4-dioxo-3,4-dihydrothieno[3,2-d]pyrimidin-1(2H)-yl)propanenitrile]",> 1000 nM,> 1000 nM,
"COc1cc(-c2cc3c(s2)c(=O)n(-c2cncc4nc(C(F)(F)F)n(C)c24)c(=O)n3CCC#N)c(Cl)cc1F (single isomer, unassigned) [Example 973, 3-(6-(2-chloro-4-fluoro-5-methoxyphenyl)-3-(1-methyl-2-(trifluoromethyl)-1H-imidazo[4,5-c]pyridin-7-yl)-2,4-dioxo-3,4-dihydrothieno[3,2-d]pyrimidin-1(2H)-yl)propanenitrile]",6.68 nM,14.7 nM,
"COc1cc(-c2cc3c(s2)c(=O)n(-c2cncc4nc(C(F)(F)F)n(C)c24)c(=O)n3CCC#N)c(Cl)cc1F (single isomer, unassigned) [Example 974, 3-(6-(2-chloro-4-fluoro-5-methoxyphenyl)-3-(1-methyl-2-(trifluoromethyl)-1H-imidazo[4,5-c]pyridin-7-yl)-2,4-dioxo-3,4-dihydrothieno[3,2-d]pyrimidin-1(2H)-yl)propanenitrile]",242 nM,602 nM,
"COc1cc(-c2cc3[nH]c(=O)n(-c4cncc5cccc(C)c45)c(=O)c3s2)c(Cl)cc1F (single isomer, unassigned) [Example 995, 6-(2-chloro-4-fluoro-5-methoxyphenyl)-3-(5-methylisoquinolin-4-yl)thieno[3,2-d]pyrimidine-2,4(1H,3H)-dione]",3.27 nM,1.26 nM,
"COc1cc(-c2cc3[nH]c(=O)n(-c4cncc5cccc(C)c45)c(=O)c3s2)c(Cl)cc1F (single isomer, unassigned) [Example 996, 6-(2-chloro-4-fluoro-5-methoxyphenyl)-3-(5-methylisoquinolin-4-yl)thieno[3,2-d]pyrimidine-2,4(1H,3H)-dione]",6390 nM,1530 nM,
"COc1cc(-c2cc3c(s2)c(=O)n(-c2cncc4cnn(C)c24)c(=O)n3CCC#N)c(C#N)cc1F (single isomer, unassigned) [Example 1003, 2-[1-(2-cyanoethyl)-3-(1-methylpyrazolo[4,3-c]pyridin-7-yl)-2,4-dioxo-thieno[3,2-d]pyrimidin-6-yl]-5-fluoro-4-methoxy-benzonitrile]",2.83 nM,5.66 nM,
"COc1cc(-c2cc3c(s2)c(=O)n(-c2cncc4cnn(C)c24)c(=O)n3CCC#N)c(C#N)cc1F (single isomer, unassigned) [Example 1004, 2-[1-(2-cyanoethyl)-3-(1-methylpyrazolo[4,3-c]pyridin-7-yl)-2,4-dioxo-thieno[3,2-d]pyrimidin-6-yl]-5-fluoro-4-methoxy-benzonitrile]",71.5 nM,112 nM,
"COc1cc(-c2cc3[nH]c(=O)n(-c4cncc5ccccc45)c(=O)c3cc2F)c(Cl)cc1F (single isomer, unassigned) [Example 1006, 7-(2-chloro-4-fluoro-5-methoxy-phenyl)-6-fluoro-3-(4-isoquinolyl)-1H-quinazoline-2,4-dione]",,9.33 nM,23.8 nM
"COc1cc(-c2cc3[nH]c(=O)n(-c4cncc5ccccc45)c(=O)c3cc2F)c(Cl)cc1F (single isomer, unassigned) [Example 1007, 7-(2-chloro-4-fluoro-5-methoxy-phenyl)-6-fluoro-3-(4-isoquinolyl)-1H-quinazoline-2,4-dione]",,301 nM,331 nM
"COc1cc(-c2cc3[nH]c(=O)n(-c4cncc5cccnc45)c(=O)c3s2)c(Cl)cc1F (single isomer, unassigned) [Example 1008, 6-(2-chloro-4-fluoro-5-methoxy-phenyl)-3-(1,6-naphthyridin-8-yl)-1H-thieno[3,2-d]pyrimidine-2,4-dione]",128 nM,138 nM,
"COc1cc(-c2cc3[nH]c(=O)n(-c4cncc5cccnc45)c(=O)c3s2)c(Cl)cc1F (single isomer, unassigned) [Example 1009, 6-(2-chloro-4-fluoro-5-methoxy-phenyl)-3-(1,6-naphthyridin-8-yl)-1H-thieno[3,2-d]pyrimidine-2,4-dione]",3.99 nM,3.96 nM,
"COc1cc(-c2cc3c(s2)c(=O)n(-c2cncc4cnn(C)c24)c(=O)n3CC#N)c(Cl)cc1F (single isomer, unassigned) [Example 1012, 2-[6-(2-chloro-4-fluoro-5-methoxy-phenyl)-3-(1-methylpyrazolo[4,3-c]pyridin-7-yl)-2,4-dioxo-thieno[3,2-d]pyrimidin-1-yl]acetonitrile]",1.99 nM,3.19 nM,
"COc1cc(-c2cc3c(s2)c(=O)n(-c2cncc4cnn(C)c24)c(=O)n3CC#N)c(Cl)cc1F (single isomer, unassigned) [Example 1013, 2-[6-(2-chloro-4-fluoro-5-methoxy-phenyl)-3-(1-methylpyrazolo[4,3-c]pyridin-7-yl)-2,4-dioxo-thieno[3,2-d]pyrimidin-1-yl]acetonitrile]",1.42 nM,16.5 nM,
"COc1cc(-c2cc3c(s2)c(=O)n(-c2cncc(F)c2C)c(=O)n3CCC#N)c(Cl)cc1F (single isomer, unassigned) [Example 1026, 3-[6-(2-chloro-4-fluoro-5-methoxy-phenyl)-3-(5-fluoro-4-methyl-3-pyridyl)-2,4-dioxo-thieno[3,2-d]pyrimidin-1-yl]propanenitrile]",3.08 nM,5.44 nM,
"COc1cc(-c2cc3c(s2)c(=O)n(-c2cncc(F)c2C)c(=O)n3CCC#N)c(Cl)cc1F (single isomer, unassigned) [Example 1027, 3-[6-(2-chloro-4-fluoro-5-methoxy-phenyl)-3-(5-fluoro-4-methyl-3-pyridyl)-2,4-dioxo-thieno[3,2-d]pyrimidin-1-yl]propanenitrile]",61.9 nM,66.1 nM,
"Cn1nnc2cncc(-n3c(=O)c4sc(-c5ccc(F)cc5Cl)cc4n(CCC#N)c3=O)c21 (single isomer, unassigned) [Example 1028, 3-[6-(2-chloro-4-fluoro-phenyl)-3-(1-methyltriazolo[4,5-c]pyridin-7-yl)-2,4-dioxo-thieno[3,2-d]pyrimidin-1-yl]propanenitrile]",17.9 nM,51 nM,
"Cn1nnc2cncc(-n3c(=O)c4sc(-c5ccc(F)cc5Cl)cc4n(CCC#N)c3=O)c21 (single isomer, unassigned) [Example 1029, 3-[6-(2-chloro-4-fluoro-phenyl)-3-(1-methyltriazolo[4,5-c]pyridin-7-yl)-2,4-dioxo-thieno[3,2-d]pyrimidin-1-yl]propanenitrile]",582 nM,> 1000 nM,
"COc1cc(-c2cc3c(s2)c(=O)n(-c2cnccc2C)c(=O)n3CCC#N)c(Cl)cc1F (single isomer, unassigned) [Example 1030, 3-[6-(2-chloro-4-fluoro-5-methoxy-phenyl)-3-(4-methyl-3-pyridyl)-2,4-dioxo-thieno[3,2-d]pyrimidin-1-yl]propanenitrile]",4.5 nM,9.72 nM,
"COc1cc(-c2cc3c(s2)c(=O)n(-c2cnccc2C)c(=O)n3CCC#N)c(Cl)cc1F (single isomer, unassigned) [Example 1031, 3-[6-(2-chloro-4-fluoro-5-methoxy-phenyl)-3-(4-methyl-3-pyridyl)-2,4-dioxo-thieno[3,2-d]pyrimidin-1-yl]propanenitrile]",45.6 nM,75.3 nM,
"COc1cc(-c2cc3c(s2)c(=O)n(-c2cncc(Cl)c2C)c(=O)n3CCC#N)c(Cl)cc1F (single isomer, unassigned) [Example 1032, 3-[6-(2-chloro-4-fluoro-5-methoxy-phenyl)-3-(5-chloro-4-methyl-3-pyridyl)-2,4-dioxo-thieno[3,2-d]pyrimidin-1-yl]propanenitrile]",1.99 nM,2.02 nM,
"COc1cc(-c2cc3c(s2)c(=O)n(-c2cncc(Cl)c2C)c(=O)n3CCC#N)c(Cl)cc1F (single isomer, unassigned) [Example 1033, 3-[6-(2-chloro-4-fluoro-5-methoxy-phenyl)-3-(5-chloro-4-methyl-3-pyridyl)-2,4-dioxo-thieno[3,2-d]pyrimidin-1-yl]propanenitrile]",420 nM,488 nM,
"COc1cc(-c2cc3[nH]c(=O)n(-c4cncc5ccc(C)nc45)c(=O)c3s2)c(Cl)cc1F (single isomer, unassigned) [Example 1034, 6-(2-chloro-4-fluoro-5-methoxyphenyl)-3-(2-methyl-1,6-naphthyridin-8-yl)thieno[3,2-d]pyrimidine-2,4(1H,3H)-dione]",3.13 nM,3.04 nM,
"COc1cc(-c2cc3[nH]c(=O)n(-c4cncc5ccc(C)nc45)c(=O)c3s2)c(Cl)cc1F (single isomer, unassigned) [Example 1035, 6-(2-chloro-4-fluoro-5-methoxyphenyl)-3-(2-methyl-1,6-naphthyridin-8-yl)thieno[3,2-d]pyrimidine-2,4(1H,3H)-dione]",26.3 nM,24.4 nM,
"COc1cc(-c2cc3c(s2)c(=O)n(-c2cncc4cccnc24)c(=O)n3CCC#N)c(Cl)cc1F (single isomer, unassigned) [Example 1036, 3-(6-(2-chloro-4-fluoro-5-methoxyphenyl)-3-(1,6-naphthyridin-8-yl)-2,4-dioxo-3,4-dihydrothieno[3,2-d]pyrimidin-1(2H)-yl)propanenitrile]",1.42 nM,0.66 nM,
"COc1cc(-c2cc3c(s2)c(=O)n(-c2cncc4cccnc24)c(=O)n3CCC#N)c(Cl)cc1F (single isomer, unassigned) [Example 1037, 3-(6-(2-chloro-4-fluoro-5-methoxyphenyl)-3-(1,6-naphthyridin-8-yl)-2,4-dioxo-3,4-dihydrothieno[3,2-d]pyrimidin-1(2H)-yl)propanenitrile]",544 nM,362 nM,
